Results: patent publication US11091437B2, “Aryl isonitriles as a new class of antimicrobial compounds” (Purdue Research Foundation, priority 2015, dated 2021)
≈ marks a conversion by molar mass, not a printed value. Read-outs that look alike come from different tables or passages of the source.

Legend:
MRSA = assay: MIC by broth microdilution against MRSA, VISA and VRSA strains; type: cell-based, Staphylococcus aureus; details: for antimicrobial activity (in words): MRSA strains tested
Protocol: The bacterial growth inhibiting activity of these synthetic analogs of hit compound 1 were subsequently evaluated (FIG. 3).
The minimum inhibitory concentration (MIC) of each compound and linezolid was determined against eight different strains of MRSA, VISA, and VRSA using a modified version of the broth microdilution method, outlined by the CLSI. Institute CaLS, Methods for Dilution Antimicrobial Susceptibility Tests for Bacteria That Grow Aerobically—Seventh Edition: Approved Standard M7-A7. 7 ed. Wayne, Pa. 2011. The same analysis was performed with vancomycin against the VISA and VRSA strains tested. A bacterial suspension (˜1 Å˜10^5 CFU/mL) was prepared in Tryptic soy broth (TSB) and then transferred to a microtiter plate. Each agent tested was added (in triplicate) to wells in the first row of the plate and then serially diluted downward.

[1] = test system: murine macrophage (J774) cell line; assay: MTS toxicity assay against mammalian cells
[2] = test system: S. aureus exhibiting resistance to vancomycin (VRS2); assay: MIC by broth microdilution against vancomycin-resistant S. aureus; type: cell-based; details: Staphylococcus aureus; vancomycin-resistant clinical isolate VRS2
in vitro = details: human, Caco-2
Caco-2 cell monolayer = details: human
[3] = human, microsomes, 1 h
physchem = details: aqueous buffer, kinetic from dmso stock
MRSA USA300 = assay: whole-cell screening of in house small molecules; type: cell-based, Staphylococcus aureus; details: MRSA USA300, whole-cell screening hit
Description: A whole-cell screening of a small number of in house generated small molecules with diverse structural skeletons (about 250 molecules) has been conducted against MRSA USA300 with the aim to identify compounds with novel skeletons to target antibiotic drug resistance. […] Marconi, G. G. et al., J. Antibiot, 1978, 31, 27-32; Mo, S. et al., J. Nat. Prod. 2009, 72, 894-899; Raveh, A. et al., J. Nat. Prod. 2007, 70, 196-201; Sugawara, T. et al., J. Antibiot, 1997, 50, 944-948; Fujiwara, A. et al., Agric. Biol. Chem. 1982, 46, 1803-1809, Marquez, J. A. et al., J. Antibiot, 1983, 36, 1101-1108. The novel structural skeleton of compound 1 as an antibacterial compound against drug resistant strains prompted further study of these types of isonitrile compounds. Herein is reported the chemical synthesis, structure-activity relationship study, and evaluation of the antibacterial performance of compound 1 and closely related analogs against several clinically-relevant MRSA and VRSA strains.

[4] = Staphylococcus aureus, broth microdilution, over the MRSA strains tested, read-out: MIC against MRSA

[C-]#[N+]c1ccccc1/C=C/c1ccc(CCCC)cc1 [Compound 24, (E)-1-(4-butylstyryl)-2-isocyanobenzene]
MIC (MRSA; Staphylococcus aureus, MRSA, read-out: MIC against most MRSA strains tested): > 128 µM

[C-]#[N+]c1ccccc1/C=C/c1cccc(OC)c1 [Compound 15, (E)-1-isocyano-2-(3-methoxystyryl)benzene]
toxicity to J774 cells at 128 μM [1]: not toxic

[C-]#[N+]c1ccc(/C=C/c2ccncc2)cc1 [Compound 35, (E)-4-(4-isocyanostyryl)pyridine]
MIC [2]: 2 to 16 µM (≈ 0.412 to 3.3 µg/mL) | activity relative to ortho- and meta-substituted 33 and 34 (MRSA; all the strains tested): much more active

[C-]#[N+]c1ccccc1/C=C/c1cccnc1 [Compound 30, (E)-3-(2-isocyanostyryl)pyridine]
toxicity to J774 cells at 128 μM [1]: not toxic | antimicrobial activity (in words) (MRSA; broth microdilution): reduced antimicrobial activities

CC(=O)CC(c1ccccc1)c1c(O)c2ccccc2oc1=O (stereo not shown) [warfarin]
Papp B→A (in vitro): 27 ×10⁻⁶ cm/s

[C-]#[N+]c1ccccc1CCc1ccccc1 [Compound 53, 1-isocyano-2-phenethylbenzene]
potency relative to compound 13 (MRSA; all strains tested except VISA NRS1): less potent | activity against MRSA USA100, MRSA USA300, MRSA NRS119 and VISA NRS1 (MRSA; strains USA100, USA300, NRS119, VISA NRS1): active

[C-]#[N+]c1ccccc1/C=C/c1cccc(F)c1 [Compound 19, (E)-1-(3-fluorostyryl)-2-isocyanobenzene]
toxicity to J774 cells at 64 μM [1]: toxic

[C-]#[N+]c1ccccc1/C=C/c1ccc([N+](=O)[O-])cc1 [Compound 25, (E)-1-isocyano-2-(4-nitrostyryl)benzene]
MIC [2]: 2 to 16 µM (≈ 0.501 to 4 µg/mL) | toxicity to J774 cells at 32 μM ([1]; 32 μM): toxic | toxicity to J774 cells at 64 μM [1]: toxic

[C-]#[N+]c1ccccc1/C=C/c1ccncc1 [Compound 33, (E)-4-(2-isocyanostyryl)pyridine]
antimicrobial activity (in words) (MRSA; broth microdilution): reduced antimicrobial activities

[C-]#[N+]c1ccccc1C=C1CCCCC1 [Compound 26, 1-(cyclohexylidenemethyl)-2-isocyanobenzene]
activity against MRSA USA300, MRSA USA500 and MRSA NRS119 (MRSA; strains USA300, USA500, NRS119): inactive

[C-]#[N+]c1ccc(C)cc1-c1ccc(C(F)(F)F)cc1 [Compound 50, 2-isocyano-5-methyl-4′(trifluoromethyl)-1,1′-biphenyl]
antimicrobial activity (in words) (MRSA; broth microdilution): loss in antimicrobial activity

[C-]#[N+]c1ccccc1/C=C/c1ccccc1 [Compound 13, (E)-1-isocyano-2-styrylbenzene]
concentration up to which not toxic to mammalian cells ([1]; J774 cells): 64 µM | apparent permeability Papp, apical (A) to basolateral (B) (Caco-2 cell monolayer): 0.0 cm/sec | apparent permeability Papp, basolateral to apical (Caco-2 cell monolayer): 0.0 cm/sec | parent compound remaining after one hour [3]: 24% | parent compound remaining after one hour, NADPH not present [3]: 51% | solubility (physchem): 1 to 100 µM (≈ 0.205 to 20.5 µg/mL) | MIC (MRSA; [4]): ≥ 2 µM | reduction in the MIC against MRSA relative to compound 1 (MRSA; removal of the ethyl group of 1): two-to-eight

[C-]#[N+]c1ccccc1/C=C/c1ccc(C)cc1 [Compound 23, (E)-1-isocyano-2-(4-methylstyryl)benzene]
MIC (MRSA; [4]): 4 to 64 µM (≈ 0.877 to 14 µg/mL)

[C-]#[N+]c1ccc(/C=C/c2cccnc2)cc1 [Compound 32, (E)-3-(4-isocyanostyryl)pyridine]
MIC [2]: 2 to 16 µM (≈ 0.412 to 3.3 µg/mL)

[C-]#[N+]c1ccc(/C=C/c2ccccc2)cc1 [Compound 37, (E)-1-isocyano-4-styrylbenzene]
toxicity to J774 cells at 128 μM [1]: not toxic | activity relative to ortho-substituted compound 13 (MRSA; MSSA (NRS72) and MRSA USA500): slight improvement

[C-]#[N+]c1ccccc1/C=C(\CC)c1ccccc1 [Compound 1, (E)-1-isocyano-2-(2-phenylbut-1-en-1-yl)benzene]
concentration inhibiting bacterial growth (MRSA USA300): 32 µM | MIC (MRSA; [4]): 8 to 64 µM (≈ 1.87 to 14.9 µg/mL)

[C-]#[N+]c1ccccc1/C=C(\CC)c1ccc(C(F)(F)F)cc1 [Compound 10, (E)-1-isocyano-2-(2-(4-(trifluoromethyl)phenyl)but-1-en-1-yl)benzene]
MIC [2]: 2 to 16 µM (≈ 0.603 to 4.82 µg/mL)

[C-]#[N+]c1ccccc1/C=C(\CC)c1cccc(C(F)(F)F)c1 [Compound 12]
toxicity to J774 cells at 64 μM [1]: toxic

[C-]#[N+]c1ccccc1/C=C/c1ccccn1 [Compound 27, (E)-2-(2-isocyanostyryl)pyridine]
antimicrobial activity (in words) (MRSA; broth microdilution): reduced antimicrobial activities

[C-]#[N+]c1ccccc1CP(=O)(OCC)OCC [Compound 4a, diethyl (2-isocyanobenzyl)phosphonate]
MIC (MRSA; broth microdilution, over the MRSA strains tested, read-out: MIC against MRSA): > 128 µM
